Laboratory results: US7700593B2, “Imidazo- and triazolo-pyridine compounds and methods of use thereof” (Amgen Inc., priority 2006, dated 2010)

Columns and labels:
p38α = p38α (Homo sapiens, UniProt Q16539); experiment: p38 in-vitro HTRF enzyme assay; type: biochemical; details: IC50 value ranges
Summary of the method: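 Activated recombinant human p38α with ATP and 100 nM GST-ATF2-Avitag, 1 h at RT in Tris pH 7.5/MgCl2 buffer; compound 10-point 3-fold series from about 1 μM final. HTRF 665/620 nm ratio; IC50 from 4-parameter fit, Ki via Cheng-Prusoff with experimental ATP Km.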

monocytes = experiment: Lipopolysaccharide-activated monocyte TNF production assay (LPS induced TNF release); type: cell-based, human; details: Homo sapiens, Monocyte; LPS induced TNF release from monocytes; read-out: LPS induced TNFa
Summary of the method: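 Adherent monocytes from human PBMCs were pretreated with compound 60 min, then stimulated with E. coli LPS (30 ng/mL stock added) for 4 h at 37 °C. Supernatant TNF-α measured by sandwich ELISA; concentration giving 50% TNF reduction derived by polynomial fit.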

THP1 cells = experiment: Lipopolysaccharide-activated THP1 cell TNF production assay; type: cell-based, human; details: Homo sapiens, THP-1; LPS-induced TNF-α production in THP1 cells
Summary of the method: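 THP1 cells at 1E6/mL were stimulated with LPS (1 μg/mL prepared stock) alongside 3-fold serially diluted compound for 3 h at 37 °C. Secreted TNF-α was quantified by electrochemiluminescence sandwich immunoassay. Percent of DMSO control was fitted to a 4-parameter logistic equation.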

p38α, sequence (Q16539 whole entry): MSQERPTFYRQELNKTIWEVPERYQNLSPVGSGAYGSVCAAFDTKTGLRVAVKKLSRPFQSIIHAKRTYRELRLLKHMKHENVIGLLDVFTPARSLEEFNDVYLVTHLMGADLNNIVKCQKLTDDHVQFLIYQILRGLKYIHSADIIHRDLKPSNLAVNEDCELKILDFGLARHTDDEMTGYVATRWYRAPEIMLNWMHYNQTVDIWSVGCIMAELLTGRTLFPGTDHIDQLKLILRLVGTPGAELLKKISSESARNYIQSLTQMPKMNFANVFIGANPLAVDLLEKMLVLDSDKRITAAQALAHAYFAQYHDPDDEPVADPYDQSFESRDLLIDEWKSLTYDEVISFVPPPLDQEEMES

SMILES | IC50 (p38α) [nM] | IC50 (monocytes) [nM] | IC50 (THP1 cells) [nM]
Cc1c(F)cc(C(=O)NC2CC2)cc1-c1ccn2c(-c3c(Cl)cccc3Cl)nnc2c1 [Example 59, N-cyclopropyl-3-(3-(2,6-dichlorophenyl)[1,2,4]triazolo[4,3-a]pyridin-7-yl)-5-fluoro-4-methylbenzamide] | < 25 | < 25 | < 25
Cc1ncoc1-c1nnc2cc(-c3cc(C(=O)NC4CC4)cc(F)c3C)ccn12 [Example 60, N-cyclopropyl-3-fluoro-4-methyl-5-(3-(4-methyl-1,3-oxazol-5-yl)[1,2,4]triazolo[4,3-a]pyridin-7-yl)benzamide] | < 25 | 100 to 250 | 100 to 250
Cc1c(F)cc(C(=O)Nc2ccnn2C)cc1-c1ccn2c(-c3c(F)cccc3Cl)nnc2c1 [Example 61, 3-(3-(2-chloro-6-fluorophenyl)[1,2,4]triazolo[4,3-a]pyridin-7-yl)-5-fluoro-4-methyl-N-(1-methyl-1H-pyrazol-5-yl)benzamide] | 25 to 100 | 100 to 250 | 25 to 100
Cc1ccc(C(=O)NC2CC2)cc1-c1ccn2c(-c3c(Cl)cccc3Cl)nnc2c1 [Example 62, N-cyclopropyl-3-(3-(2,6-dichlorophenyl)[1,2,4]triazolo[4,3-a]pyridin-7-yl)-4-methylbenzamide] | < 25 | < 25 | < 25
Cc1ccc(C(=O)NC2CC2)cc1-c1ccn2c(-c3c(F)cccc3Cl)nnc2c1 [Example 63, 3-(3-(2-chloro-6-fluorophenyl)[1,2,4]triazolo[4,3-a]pyridin-7-yl)-N-cyclopropyl-4-methylbenzamide] | < 25 | < 25 | < 25
Cc1c(F)cc(C(=O)NC2CC2)cc1-c1ccn2c(-c3c(F)cccc3F)nnc2c1 [Example 64, N-cyclopropyl-3-(3-(2,6-difluorophenyl)[1,2,4]triazolo[4,3-a]pyridin-7-yl)-5-fluoro-4-methylbenzamide] | < 25 | < 25 | < 25
Cc1ccc(C(=O)NC2CC2)cc1-c1ccn2c(Nc3ccccc3)nnc2c1 [Example 66, N-cyclopropyl-4-methyl-3-(3-(phenylamino)[1,2,4]triazolo[4,3-a]pyridin-7-yl)benzamide] | < 25 | 100 to 250 | 250 to 1000
Cc1ccc(C(=O)NC2CC2)cc1-c1ccn2c(-c3c(F)cccc3C(F)(F)F)nnc2c1 [Example 69, N-cyclopropyl-3-(3-(2-fluoro-6-(trifluoromethyl)phenyl)[1,2,4]triazolo[4,3-a]pyridin-7-yl)-4-methylbenzamide] | < 25 | 25 to 100 | < 25
Cc1cc(F)c(C(=O)NC2CC2)cc1-c1ccn2c(-c3ccccc3Cl)nnc2c1 [Example 70, 5-(3-(2-chlorophenyl)[1,2,4]triazolo[4,3-a]pyridin-7-yl)-N-cyclopropyl-2-fluoro-4-methylbenzamide] | < 25 | 100 to 250 | 25 to 100
Cc1c(F)cc(C(=O)NC2CC2)cc1-c1ccn2c(-c3ccccc3C(F)(F)F)nnc2c1 [Example 74, N-cyclopropyl-3-fluoro-4-methyl-5-(3-(2-(trifluoromethyl)phenyl)[1,2,4]triazolo[4,3-a]pyridin-7-yl)benzamide] | < 25 | < 25 | < 25
Cc1ccc(C(=O)NC2CC2)cc1-c1ccn2c(N(C)c3ccccc3)nnc2c1 [Example 75, N-cyclopropyl-4-methyl-3-(3-(methyl(phenyl)amino)[1,2,4]triazolo[4,3-a]pyridin-7-yl)benzamide] | < 25 | 250 to 1000 | 25 to 100
Cc1ccc(C(=O)NC2CC2)cc1-c1ccn2c(-c3ccccc3Cl)nnc2c1C [Example 78, 3-(3-(2-chlorophenyl)-8-methyl[1,2,4]triazolo[4,3-a]pyridin-7-yl)-N-cyclopropyl-4-methylbenzamide] | 25 to 100 | 250 to 1000 | 25 to 100
Cc1c(F)cc(C(=O)NC2CC2)cc1-c1ccn2c(-c3ccncc3Cl)nnc2c1 [Example 79, 3-(3-(3-chloro-4-pyridinyl)[1,2,4]triazolo[4,3-a]pyridin-7-yl)-N-cyclopropyl-5-fluoro-4-methylbenzamide] | < 25 | 25 to 100 | < 25
Cc1ccc(C(=O)NC2CC2)cc1-c1ccn2c(-c3ccncc3Cl)nnc2c1 [Example 80, 3-(3-(3-chloro-4-pyridinyl)[1,2,4]triazolo[4,3-a]pyridin-7-yl)-N-cyclopropyl-4-methylbenzamide] | < 25 | 25 to 100 | < 25
Cc1ccc(C(=O)NC2CC2)cc1-c1ccn2c(-c3c(C)cccc3Cl)nnc2c1 [Example 81, 3-(3-(2-chloro-6-methylphenyl)[1,2,4]triazolo[4,3-a]pyridin-7-yl)-N-cyclopropyl-4-methylbenzamide] | < 25 | < 25 | < 25
Cc1ccccc1-c1nnc2cc(-c3cc(C(=O)NC4CC4)cc(F)c3C)ccn12 [Example 82, N-cyclopropyl-3-fluoro-4-methyl-5-(3-(2-methylphenyl)[1,2,4]triazolo[4,3-a]pyridin-7-yl)benzamide] | < 25 | < 25 | < 25
Cc1cccc(F)c1-c1nnc2cc(-c3cc(C(=O)NC4CC4)cc(F)c3C)ccn12 [Example 83, N-cyclopropyl-3-fluoro-5-(3-(2-fluoro-6-methylphenyl)[1,2,4]triazolo[4,3-a]pyridin-7-yl)-4-methylbenzamide] | < 25 | < 25 | < 25
Cc1ccc(C(=O)NC2CC2)cc1-c1ccn2c(Cc3ccccc3)nnc2c1 [Example 89, N-cyclopropyl-4-methyl-3-(3-(phenylmethyl)[1,2,4]triazolo[4,3-a]pyridin-7-yl)benzamide] | < 25 | 250 to 1000 | 100 to 250
Cc1cc(Cl)c(C(=O)NC2CC2)cc1-c1ccn2c(-c3ccccc3Cl)nnc2c1 [Example 90, 2-chloro-5-(3-(2-chlorophenyl)[1,2,4]triazolo[4,3-a]pyridin-7-yl)-N-cyclopropyl-4-methylbenzamide] | 250 to 1000 | > 5000 | 1000 to 5000
Cc1cccc(Cl)c1-c1nnc2cc(-c3cc(C(=O)NC4CC4)cc(F)c3C)ccn12 [Example 91, 3-(3-(2-chloro-6-methylphenyl)[1,2,4]triazolo[4,3-a]pyridin-7-yl)-N-cyclopropyl-5-fluoro-4-methylbenzamide] | < 25 | < 25 | < 25
Cc1c(F)cc(C(=O)Nc2ccon2)cc1-c1ccn2c(-c3c(F)cccc3F)nnc2c1 [Example 92, 3-(3-(2,6-difluorophenyl)[1,2,4]triazolo[4,3-a]pyridin-7-yl)-5-fluoro-N-3-isoxazolyl-4-methylbenzamide] | < 25 | < 25 | < 25
Cc1ccc(C(=O)NC2CC2)cc1-c1ccn2c(C3CC3)nnc2c1 [Example 93, N-cyclopropyl-3-(3-cyclopropyl[1,2,4]triazolo[4,3-a]pyridin-7-yl)-4-methylbenzamide] | < 25 | 100 to 250 | 25 to 100
Cc1ccc(C(=O)NC2CC2)cc1-c1ccn2c(C3CCCCC3)nnc2c1 [Example 94, 3-(3-cyclohexyl[1,2,4]triazolo[4,3-a]pyridin-7-yl)-N-cyclopropyl-4-methylbenzamide] | < 25 | 100 to 250 | 25 to 100
